# According to US20240115594A1, “DINUCLEOTIDES AND THEIR USE IN TREATING CANCER” (MAIA Biotechnology, Inc., priority 2022, published 2024):
# Tests used:
# Format in all cases: cell-based
# NCI-H23 = test: IC50 determination / cytotoxicity in human cell lines (NCI-H23); conditions: NCI-H23 (lung; adenocarcinoma), 96 h; for % max. toxicity @ 50 μM4: 50 μM; for IC50: 10.000 cells per well, read-out: IC50 [μM] relative to untreated cells
# Experimental: (§1) Anticancer activity of the dinucleotides, (formulated and administered in PBS solutions), was evaluated in vitro in various cancer cell lines, according to a commonly used procedures for assessment of compounds cytotoxicity, as out lined in the following publications: Mender, I., Gryaznov, S., Dikmen, Z. G., Wright, W. E., & Shay, J. W. (2015). Induction of telomere dysfunction mediated by the telomerase substrate precursor 6-thio-2′-deoxyguanosine. Cancer Discovery, 5, 82-95; Mender et al., (2020). Telomere Stress Potentiates STING-Dependent Anti-tumor Immunity. Cancer Cell, 38, 400-411.
# HEK293 = test: IC50 determination / cytotoxicity in human cell lines (HEK293); conditions: HEK293 (Kidney), 96 h; for IC50: 10.000 cells per well, 96 well plates, read-out: IC50 [μM] relative to untreated cells
# Experimental: as §1
# Hep3B = test: IC50 determination / cytotoxicity in human cell lines (Hep3B); conditions: Hep3B (liver; childhood HCC), 96 h; for % max. toxicity @ 50 μM2: 50 μM; for IC50: 10.000 cells per well, read-out: IC50 [μM] relative to untreated cells
# Experimental: as §1
# Panc-1 = test: IC50 determination / cytotoxicity in human cell lines (Panc-1); conditions: 96 h; for % max. toxicity @ 50 μM5: 50 μM; for IC50: 10.000 cells per well, read-out: IC50 [μM] relative to untreated cells
# Experimental: as §1
# HepG2 = test: IC50 determination / cytotoxicity in human cell lines (HepG2); conditions: HepG2 (liver; hepatoblastoma), 96 h; for % max. toxicity @ 50 μM3: 50 μM; for IC50: 10.000 cells per well, read-out: IC50 [μM] relative to untreated cells
# Experimental: as §1
Compound,% max. toxicity @ 50 μM4 (NCI-H23) [%],IC50 (NCI-H23) [µM],% max. toxicity @ 50 μM (HEK293) [%],IC50 (HEK293) [µM],% max. toxicity @ 50 μM2 (Hep3B) [%],IC50 (Hep3B) [µM],% max. toxicity @ 50 μM5 (Panc-1) [%],IC50 (Panc-1) [µM],% max. toxicity @ 50 μM3 (HepG2) [%],IC50 (HepG2) [µM]
Nc1nc2c(ncn2[C@H]2C[C@@H](O)[C@@H](COP(=O)(O)O[C@@H]3C[C@H](n4cnc5c(=S)[nH]c(N)nc54)O[C@@H]3CO)O2)c(=S)[nH]1 [Compound 1],93,0.07,94,0.28,92,0.68,95,0.18,94,0.15
Nc1nc2c(ncn2[C@H]2C[C@@H](OP(=O)(O)OC[C@H]3O[C@@H](n4cc(F)c(=O)[nH]c4=O)C[C@H]3O)[C@@H](CO)O2)c(=S)[nH]1 [Compound 5],94,0.01,94,0.02,87,0.09,96,0.25,92,0.04
Nc1nc2c(ncn2[C@H]2C[C@@H](O)[C@@H](COP(=O)(O)O[C@@H]3C[C@H](n4cc(F)c(=O)[nH]c4=O)O[C@@H]3CO)O2)c(=S)[nH]1 [Compound 6],92,0.02,93,0.01,82,0.06,88,0.25,89,0.06
Nc1nc2c(ncn2[C@H]2C[C@@H](OP(O)(=S)OC[C@H]3O[C@@H](n4cc(F)c(=O)[nH]c4=O)C[C@H]3O)[C@@H](CO)O2)c(=S)[nH]1 (some centres unmarked) [Compound 11],79,1.11,86,0.63,62,1.12,80,5.12,71,0.61
Nc1nc2c(ncn2[C@H]2C[C@@H](O)[C@@H](COP(O)(=S)O[C@@H]3C[C@H](n4cc(F)c(=O)[nH]c4=O)O[C@@H]3CO)O2)c(=S)[nH]1 (some centres unmarked) [Compound-12],81,2.55,86,0.61,59,3.68,48,> 50,49,1.15
